Test results from patent US11958842B2, “Substituted phenazines and methods of treating cancer and bacterial diseases” (Adjutec Pharma AS, priority 2016, dated 2024).
In brackets after ≈: the same amount, converted by molar mass. Read-outs that look alike come from different tables or passages of the source. Marks after values point to notes of the source that are not given here.

Columns and labels:
[1] = system: Molm13 cells; test: Anti-AML activity, WST-1 viability (Example 72); format: cell-based; conditions: Homo sapiens
Outline: (§1)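 Rat IPC-81 cells in DMEM with 10% horse serum and Molm13 cells in RPMI with 10% FBS, seeded at 150 000 cells/ml with compound dilution series. After 22 h exposure, WST-1 added for a further 2 h; absorbance read at 450 nm (620 nm reference) as viability.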

[2] = system: human acute myeloid leukemia cell line MOLM-13; test: Cytotoxicity, WST-1 and nuclear morphology (Example 73); format: cell-based
Outline: (§2)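 MOLM-13 (RPMI/FBS), NRK and H9c2 (DMEM/10% FBS) cells under 2% or 20% O2 at 37° C were exposed to analogues for 24 h (≤1% DMSO). Viability was read by WST-1, and cell death by Hoechst 33342 nuclear morphology; EC50 came from four-parameter regression.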

[3] = system: normal rat kidney epithelial (NRK) cells; test: as above; format: cell-based; conditions: Rattus norvegicus
Outline: as §2

[4] = system: rat cardiomyoblast (H9c2) cells; test: as above; format: cell-based; conditions: H9c2, 19% O2, 24 hours of incubation, read-out: EC50 (μM) H9c2 19% O2
Outline: as §2

[5] = system: hepG2; test: Cytotoxicity (Example 73, Table 2); format: cell-based; conditions: Homo sapiens, read-out: EC50 (μM) hepG2
[6] = system: A.baumannii/OXA-23; test: Microbroth dilution MIC; format: cell-based; conditions: Acinetobacter baumannii; S7 A.baumannii/OXA-23; substance alone
Method: (§3) Day 1: • Plate bacterial strain(s) on appropriate media: • Gram-negative bacteria with ESBLs or carbapenemases: green agar plates with 100 mg/L ampicillin • Gram-negative bacteria without β-lactamases: green agar plates • Gram-positive bacteria (Staphylococci and Enterococci): blood agar plates • Incubate o.n. at 37° C.
(§4) Prepare the Bacterial Inoculum: • Prepare a 0.5 McFarland suspension of bacteria in 0.85% NaCl. (Should be used within 15 min of preparation). • Dilute the 0.5 McFarland suspension 1:100 into MH broth.
(§5) Check the inoculum by diluting the prepared bacterial suspension 1:100 (10 μl bacterial suspension+990 μl 0.85% NaCl). Plate 10 μl of the dilution on MH agar plates (×2). Incubate o.n. at 37° C., count the colonies and calculate the final CFU/ml inoculum in the plate by multiplying the average number of colonies with 10000 and divide by 2. The final inoculum should be between 3-7×10^5 CFU/ml. • Add 50 μl of the prepared bacterial suspension to each well in the microtiter plate except negative growth control.
(§6) Preparation of Compounds/Antibiotics • Calculate the desired concentration-range and volume of the compounds/antibiotics in the assay. For antibiotics this will depend on the MIC to meropenem of the bacterial strains to be tested. Dilute the stock solution in MH broth. Make subsequent 2-fold dilutions in MH broth of the desired concentrations if a concentration range is to be tested (remember the extra dilution factor in the assay plate). Always include extra volume for pipetting. Take into consideration stock solutions that are made in buffers that have an effect on bacterial growth (e.g. DMSO).
(§7) This experimental design was used for the results in Tables 4 and 5 below. In Table 4, inhibitor concentration dependency on the MIC of meropenem was studied.

[7] = system: E. coli/OXA-48; test: Microbroth dilution MIC; format: cell-based; conditions: Escherichia coli, read-out: MIC alone
Method: as §3, §4, §5, §6, §7

[8] = system: K. pneumoniae/KPC-2; test: Microbroth dilution MIC; format: cell-based; conditions: Klebsiella pneumoniae; S6 K. pneumoniae/KPC-2; substance alone
Method: as §3, §4, §5, §6, §7

[9] = system: K. pneumoniae/NDM-1; test: Microbroth dilution MIC; format: cell-based; conditions: Klebsiella pneumoniae; S4 K. pneumoniae/NDM-1; substance alone
Method: as §3, §4, §5, §6, §7

[10] = system: P. aeruginosa/VIM-2; test: Microbroth dilution MIC; format: cell-based; conditions: Pseudomonas aeruginosa, read-out: MIC alone
Method: as §3, §4, §5, §6, §7

[11] = system: methicillin-resistant S. aureus MRSA A4-37; test: Microbroth dilution MIC; format: cell-based; conditions: compound alone
Method: as §3, §4, §5, §6, §7

[12] = system: vancomycin-resistant E. faecium vanA A1-22; test: Microbroth dilution MIC; format: cell-based; conditions: compound alone
Method: as §3, §4, §5, §6, §7

[13] = system: IPC-81 rat AML cells; test: Anti-AML activity, WST-1 viability (Example 72); format: cell-based
Outline: as §1

[14] = system: K. pneumoniae (17A2); test: Microbroth dilution MIC; format: cell-based; conditions: Klebsiella pneumoniae; S2 K. pneumoniae (17A2), lacking metallo-β-lactamase; substance alone
Method: as §3, §4, §5, §6, §7

[15] = system: P. aeruginosa (16H5); test: Microbroth dilution MIC; format: cell-based; conditions: Pseudomonas aeruginosa; S1 P. aeruginosa (16H5), lacking metallo-β-lactamase; substance alone
Method: as §3, §4, §5, §6, §7

[16] = Parallel artificial membrane permeability assay (PAMPA); conditions: PAMPA, 50 μM in PBS, room temperature, five hours
Method: The Corning Gentest™ pre-Coated parallel artificial membrane permeability assay PAMPA Plate System was from Cording Discovery Labware (Bedford, USA). The compounds were tested in room temperature at 50 μM using PBS as buffer. A total of 300 μl of the compound solution was added to each well of the donor plate, and 200 μl of PBS was added to the receiver filter plate. After incubation for five hours, 50 μl of the donor or acceptor well were injected into a reversed phase HPLC column (Kromasil 100-5 C18 150-4.6 mm, Akzo Nobel, Sweden) connected to a Merck-Hitachi LaChrome HPLC-system (VWR, WestChester, USA) with a L-7455 diode array detector. Mobile phase A was 0.05% aqueous TFA, and mobile phase B was acetonitrile. The flow rate was 1.6 ml/min and compounds eluted between 1 and 4.5 minutes was eluted during a 6.5 min gradient from 90:10% mobile phase A:B to 0:100% mobile phase A:B. The ratio of the compound concentrations in the donor and acceptor compartment was calculated after integration of the peaks at 285 nm. Peff was calculated as described in [Bennion B J, Be N A, McNerney M W, Lao V, Carlson E M, Valdez C A, et al. Predicting a Drug's Membrane Permeability: A Computational Model Validated With in Vitro Permeability Assay Data. The journal of physical chemistry B. 2017; 121(20):5228-37.]. Membrane permeability were classified by the range defined by Bennion et al., allowing for us to divide the compounds into four groups, compounds with high permeability (LogPeff>−5.33), intermediate permeability (LogPeff>−5.66 and <−5.33), low permeability (LogPeff>−6.14 and <−5.66) impermeable (LogPeff<−6.14).

[17] = all solvents; background statement; cited from earlier work
[18] = Molm 13 cells, 20% O2, 24 h of incubation, WST-1, read-out: Molm 13 IC50 20% O2
[19] = Homo sapiens, MOLM-13, 2% O2, 24 hours of incubation, read-out: EC50 (μM) MOLM-13 2% O2
[20] = Homo sapiens, MOLM-13, 19% O2, 24 hours of incubation, read-out: EC50 (μM) MOLM-13 19% O2
[21] = 2% O2, 24 hours of incubation, read-out: EC50 (μM) NRK 2% O2
[22] = 19% O2, 24 hours of incubation, read-out: EC50 (μM) NRK 19% O2
[23] = Molm 13 cells, 2% O2, 24 h of incubation, WST-1, read-out: Molm 13 IC50 2% O2
[24] = MOLM-13, 2% O2, 24 hours of incubation, read-out: EC50 (μM) MOLM-13 2% O2
[25] = MOLM-13, 19% O2, 24 hours of incubation, read-out: EC50 (μM) MOLM-13 19% O2
[26] = 24 h, read-out: EC50 (μM) NRK 2% O2, NRK, 2% O2, 24 hours of incubation
[27] = 24 h, read-out: EC50 (μM) NRK 19% O2, NRK, 19% O2, 24 hours of incubation

Row | SMILES | IC50 [1, 18] | EC50 [2, 19] | EC50 [2, 20] | EC50 [3, 21] | EC50 [3, 22] | EC50 ([4]; Rattus norvegicus) | EC50 ([5]; hepG2, 24 hours of incubation) | MIC A4-37 S. aureus MRSA [11] | MIC A1-22 E. faecium vanA [12] | IC50 [1, 23] | also measured
1 | CCOC(=O)COc1cccc2c1[n+]([O-])c1ccccc1[n+]2[O-] [Example 6a, 1-(2-ethoxy-2-oxoethoxy)phenazine 5,10-dioxide] | 110 nM | 1.7 ± 0.29 µM | 1.5 ± 0.14 µM | 25 ± 0.2 µM | 26 ± 0.8 µM | 20 ± 2.9 µM | 75 µM | < 0.5 µg/mL | 4 µg/mL (≈ 12.7 µM) | – | MIC [6]: 5 µg/mL (≈ 15.9 µM); MIC [7]: 2.5 µg/mL (≈ 7.95 µM); MIC [8]: 9.7 µg/mL (≈ 30.9 µM); MIC [9]: 19.6 µg/mL (≈ 62.4 µM); MIC [10]: 39.3 µg/mL (≈ 125 µM)
2 | COc1cccc2c1[n+]([O-])c1cccc(OC(C)=O)c1[n+]2[O-] [Example 5e, 1-Acetoxy-6-methoxyphenazine 5,10-dioxide] | 1500 nM | – | – | – | – | – | – | – | – | 1450 nM | IC50 ([13]; IPC81, IPC-81 cells, 2% O2, 24 h of incubation, WST-1, read-out: IPC-81 IC50 2% O2): 1700 nM; IC50 ([13]; IPC81, IPC-81 cells, 20% O2, 24 h of incubation, WST-1, read-out: IPC-81 IC50 20% O2): 1800 nM
3 | C[C@@H](O)[C@H]1C(=O)N2C(C(=O)O)=C(S[C@@H]3CN[C@H](C(=O)N(C)C)C3)[C@H](C)[C@H]12 [MEM, meropenem, reference compound] | – | – | – | – | – | – | – | – | – | – | MIC [6]: > 64 µg/mL; MIC [7]: 1 µg/mL (≈ 2.61 µM); MIC [14]: 8 µg/mL (≈ 20.9 µM); MIC [8]: > 64 µg/mL; MIC [9]: 64 µg/mL (≈ 167 µM); MIC [15]: > 64 µg/mL; MIC ([10]; S3 P. aeruginosa/VIM-2, substance alone): 32 µg/mL (≈ 83.4 µM)
4 | CCOC(=O)COc1cccc2c1[n+]([O-])c1cc(Br)c(Br)cc1[n+]2[O-] [Example 6d, 7,8-dibromo-1-(2-ethoxy-2-oxoethoxy)phenazine 5,10-dioxide] | – | 1.6 ± 0.09 µM | 2.4 ± 0.03 µM | 9.7 ± 2.4 µM | 10 ± 0.7 µM | 3.3 ± 0.5 µM | 65 µM | 16 µg/mL (≈ 33.9 µM) | 8 µg/mL (≈ 16.9 µM) | – | –
5 | COc1cccc2c1[n+]([O-])c1cccc(OC(=O)N3CCCC3)c1[n+]2[O-] [Example 8l, 1-methoxy-6-((pyrrolidine-1-carbonyl)oxy)phenazine 5,10-dioxide] | – | – | – | – | – | – | – | < 4 µg/mL | 63 µg/mL (≈ 177 µM) | – | EC50 [2, 24]: 1.8 ± 0.17 µM; EC50 [2, 25]: 2 ± 0.11 µM; EC50 [3, 26]: 35 ± 1.5 µM; EC50 [3, 27]: 32 ± 2.5 µM; EC50 [4]: 35 ± 3.3 µM; EC50 ([5]; HepG2, 24 h): 110 µM
6 | CC(C)(C)OC(=O)COc1cccc2c1[n+]([O-])c1cccc(O)c1[n+]2[O-] [Example 5b, 1-(2-(tert-butoxy)-2-oxoethoxy)-6-hydroxyphenazine 5,10-dioxide] | 1770 nM | 2.4 ± 0.16 µM | 2.9 ± 0.34 µM | 53 µM | 53 ± 1.5 µM | 42 ± 5.8 µM | – | < 0.5 µg/mL | 8 µg/mL (≈ 22.3 µM) | 1650 nM | LogPeff [16]: −5.33
7 | [O-][n+]1c2cccc(O)c2[n+]([O-])c2cccc(O)c21 [Example 1c, 1,6-dihydroxyphenazine 5,10-dioxide, reference compound] | 300 nM | 0.79 ± 0.1 µM | 2 ± 0.07 µM | > 50 µM | > 50 µM | > 50 µM | > 250 µM | – | – | 270 nM | IC50 ([13]; IPC81, 24 h, read-out: IPC-81 IC50 2% O2): 510 nM; IC50 ([13]; IPC81, 24 h, read-out: IPC-81 IC50 20% O2): 1300 nM; LogPeff [16]: −5.46*; solubility [17]: practically insoluble in all solvents
8 | CN1CCN(C(=O)Oc2cccc3c2[n+]([O-])c2ccccc2[n+]3[O-])CC1 [Example 8c, 1-((4-methylpiperazine-1-carbonyl)oxy)phenazine 5,10-dioxide] | – | – | – | – | – | – | – | < 4 µg/mL | 8 µg/mL (≈ 22.6 µM) | – | IC50 ([1]; MOLM-13, 24 h, read-out: Molm 13 IC50 20% O2): 350 nM; EC50 [2, 24]: 1.9 ± 0.05 µM; EC50 [2, 25]: 1.5 ± 0.18 µM; EC50 [3, 26]: 37 ± 1.9 µM; EC50 [3, 27]: 25 ± 0.2 µM; EC50 [4]: 36 ± 11 µM
